Laboratory results published in US7253191B2, “2-thio-substituted imidazole derivatives and the use thereof in the pharmaceutical industry” (Merckle GmbH, priority 2001, dated 2007).

Columns and labels:
[1] = test system: TNF-α; test: In vitro test of cytokine release: LPS-stimulated human whole blood / PBMCs, TNFα by ELISA; format: cell-based; details: for IC50: LPS (E.coli 026:B6) stimulation 4 hours, table does not say whole blood or PBMCs; for TNF-α, value given in %: concentration not given
Description: (§1) They may be administered in one individual dose or in a plurality of doses. The activity spectrum of the compounds as inhibitors of cytokine release was examined using the test systems below, as described by C. Donat and S. Laufer in Arch. Pharm. Pharm. […] 1, 1-40, 2000.
(§2) The reaction is stopped by placing the samples on ice, adding DPBS buffer and then centrifuging at 1000*g for 15 min. The amount of IL-1β and TNFα in the plasma supernatant is then determined by ELISA.
(§3) The cells are washed twice with DPBS buffer, resuspended in macrophage SFM medium and adjusted to a cell count of 1*10^6 cells/ml.
(§4) The reaction is stopped by placing the samples on ice, adding DPBS buffer and then centrifuging at 15 880*g for 12 min. The amount of IL-1β and TNFα in the plasma supernatant is then determined by ELISA.

[2] = test system: IL-1β; test: In vitro test of cytokine release: LPS-stimulated human whole blood / PBMCs, IL-1β by ELISA; format: cell-based; details: for IC50: LPS (E.coli 026:B6) stimulation 4 hours, table does not say whole blood or PBMCs
Description: as §1, §2, §3, §4

Question: What does the source list for `CCCn1c(Sc2ccccc2)nc(-c2ccc(F)cc2)c1-c1ccncc1` [Example 52, 4-(4-Fluorophenyl)-2-phenylthio-1-n-propyl-5-(4-pyridyl)imidazole]?
Answer: IC50 ([1]; Homo sapiens, Table 1): 14000 nM; IC50 ([2]; Homo sapiens, Table 1): 1000 nM

Question: For `CCCn1c(Sc2ccc(Cl)cc2)nc(-c2ccc(F)cc2)c1-c1ccncc1` [Example 53, 2-(4-Chlorophenyl)thio-4-(4-fluorophenyl)-1-n-propyl-5-(4-pyridyl)-imidazole], which IC50 ([1]; Homo sapiens, Table 1) is on record?
Answer: 29000 nM

Question: And the IC50 ([2]; Homo sapiens, Table 1)?
Answer: 3300 nM

Question: Which IC50 ([1]; Table 1) does the source give for `CCCn1c(Sc2ccc(SC)cc2)nc(-c2ccc(F)cc2)c1-c1ccncc1` [Example 54, 4-(4-Fluorophenyl)-2-(4-methylsulfanyl)phenylsulfanyl-1-n-propyl-5-(4-pyridyl)imidazole] here?
Answer: 68000 nM

Question: And the IC50 ([2]; Table 1)?
Answer: 2500 nM

Question: Which IC50 ([1]; Table 1) does the source give for `CCCn1c(Sc2ccc([S+](C)[O-])cc2)nc(-c2ccc(F)cc2)c1-c1ccncc1` (stereo not shown) [Example 55, 4-(4-Fluorophenyl)-2-[(4-methylsulfinyl)phenyl]thio-1-n-propyl-5-(4-pyridyl)imidazole] here?
Answer: 6200 nM

Question: And the IC50 ([2]; Table 1)?
Answer: 720 nM

Question: For `CCCn1c(Sc2ccc(S(C)(=O)=O)cc2)nc(-c2ccc(F)cc2)c1-c1ccncc1` [Example 56, 4-(4-Fluorophenyl)-2-[(4-methylsulfonyl)phenyl]thio-1-n-propyl-5-(4-pyridyl)imidazole], which IC50 ([1]; Table 1) is on record?
Answer: 19000 nM

Question: What about the IC50 ([2]; Table 1) of the same molecule?
Answer: 1500 nM

Question: What does the source list for `Cc1nc(S)n(-c2ccc(F)cc2)c1-c1ccncc1` [Example 57, 1-(4-Fluorophenyl)-4-methyl-5-(4-pyridyl)imidazole-2-thiol]?
Answer: TNF-α, value given in % ([1]; Table 1): 34%; IC50 ([2]; Homo sapiens, Table 1): 19000 nM

Question: How did the “TNF-α, value given in %” value ([1]; Table 1) turn out when `Cc1c(-c2ccc(F)cc2)nc(S)n1-c1cccnc1` [Example 58, 4-(4-Fluorophenyl)-5-methyl-1-(3-pyridyl)imidazole-2-thiol] was run?
Answer: 32%

Question: What about the IC50 ([2]; Homo sapiens, Table 1) of the same molecule?
Answer: 28000 nM

Question: Which IC50 ([1]; Table 1) does the source give for `CCCn1c(S)nc(-c2ccncc2)c1-c1ccc(F)cc1` [Example 59] here?
Answer: 83000 nM

Question: And the “IL-1β, value given in %” value ([2]; Table 1, concentration not given)?
Answer: 16%

Question: Which IC50 ([1]; Homo sapiens, Table 2) does the source give for `CSc1nc(-c2ccc(F)cc2)c(-c2ccnc(NC(C)=O)c2)n1C` [Example 61, 4-(4-Fluorophenyl)-1-methyl-5-(2-acetamido-4-pyridyl)-2-methyl-thioimidazole] here?
Answer: 870 nM

Question: What about the IC50 ([2]; Homo sapiens, Table 2) of the same molecule?
Answer: 70 nM

Question: Which results are given for `CCCn1c(SC)nc(-c2ccc(F)cc2)c1-c1ccnc(NC(C)=O)c1` [Example 62, 4-(4-Fluorophenyl)-1-n-propyl-5-(2-acetamido-4-pyridyl)-2-methyl-thioimidazole]?
Answer: IC50 ([1]; Homo sapiens, Table 2): 490 nM; IC50 ([2]; Homo sapiens, Table 2): 120 nM

Question: With `CSc1nc(-c2ccc(F)cc2)c(-c2ccnc(NC(C)=O)c2)n1C1CC(C)(C)NC(C)(C)C1` [Example 63, 4-(4-Fluorophenyl)-1-(2,2,6,6-tetramethylpiperidin-4-yl)-5-(2-acetamido-4-pyridyl)-2-methylthioimidazole] as the molecule, how does the IC50 ([1]; Homo sapiens, Table 2) read?
Answer: 4500 nM

Question: And the IC50 ([2]; Homo sapiens, Table 2)?
Answer: 460 nM

Question: Which IC50 ([1]; Homo sapiens, Table 2) does the source give for `CSc1nc(-c2ccc(F)cc2)c(-c2ccnc(N)c2)n1C` [Example 66, 4-(4-Fluorophenyl)-1-methyl-5-(2-amino-4-pyridyl)-2-methyl-thioimidazole] here?
Answer: 2300 nM

Question: What about the IC50 ([2]; Homo sapiens, Table 2) of the same molecule?
Answer: 270 nM

Question: How did the IC50 ([1]; Homo sapiens, Table 2) turn out when `COc1ccc(C(=O)Nc2cc(-c3c(-c4ccc(F)cc4)nc(SC)n3C)ccn2)cc1` [Example 67, 4-([lacuna]-Fluorophenyl)-1-methyl-5-[2-(4-methoxybenzamido)-4-pyridyl]-2-methylthioimidazole] was run?
Answer: 640 nM

Question: What about the IC50 ([2]; Homo sapiens, Table 2) of the same molecule?
Answer: 440 nM

Question: Which results are given for `CSc1nc(-c2ccc(F)cc2)c(-c2ccnc(NCc3ccccc3)c2)n1C` [Example 70, 4-(4-Fluorophenyl)-1-methyl-5-(2-benzylamino-4-pyridyl)-2-methyl-thioimidazole]?
Answer: IC50 ([1]; Homo sapiens, Table 2): 390 nM; IC50 ([2]; Homo sapiens, Table 2): 80 nM

Question: With `CCNc1cc(-c2c(-c3ccc(F)cc3)nc(SC)n2C)ccn1` [Example 73] as the molecule, how does the IC50 ([1]; Homo sapiens, Table 2) read?
Answer: 350 nM

Question: And the IC50 ([2]; Homo sapiens, Table 2)?
Answer: 50 nM

Question: `CCCn1c(SC)nc(-c2ccc(F)cc2)c1-c1ccnc(NCC)c1` [Example 74, 4-(4-Fluorophenyl)-1-n-propyl-5-(2-ethylamino-4-pyridyl)-2-methylthioimidazole] was tested. Which IC50 ([1]; Homo sapiens, Table 2) did it give?
Answer: 410 nM

Question: And the IC50 ([2]; Homo sapiens, Table 2)?
Answer: 150 nM

Question: Which results are given for `CCNc1cc(-c2c(-c3ccc(F)cc3)nc(SC)n2C2CC(C)(C)NC(C)(C)C2)ccn1` [Example 75]?
Answer: IC50 ([1]; Homo sapiens, Table 2): 2900 nM; IC50 ([2]; Homo sapiens, Table 2): 620 nM
